Experimental data taken from patent US12594282B2, “Use of small molecule compounds in the treatment of diseases mediated by lung epithelial cell injury and/or vascular endothelial cell injury” (Guangzhou Cellprotek Pharmaceutical Co., Ltd., priority 2020, dated 2026).
Peptide text beside a SMILES is read from it. * marks the point of attachment. Cbz = O=C(OCc1ccccc1)*

How the values were obtained:
NR4A3 [1] = assay: NR4A3 protein expression under OGD-R, HUVEC (Western blot, immunofluorescence); type: cell-based, human; details: for degradation of NR4A3 during restoration injury: given together with CHX 100 μM, MG132 10, 30, 100 nM, CQ 10, 30, 100 μM
Description: (§1) HUVEC cells were cultured in modified DMEM medium containing 10% fetal bovine serum. When the cells reached about 80% confluence, the cells were digested with 0.25% trypsin, and then pipetted evenly with modified DMEM containing 10% […]. The cell concentration was adjusted to 1×10^5 cells/mL, and the cells were seeded at 400 uL/well in a 24-well plate, and the experiment was carried out when the cells grew to about 70% confluence. RAOEC cells were cultured in high-glucose DMEM medium containing 10% fetal bovine serum, and the seeding conditions were the same as those of HUVEC. During the OGD-R injury treatment, the hypoxia workstation was set to have an oxygen concentration of 1% (1% O2, 5% CO2, 94% N2), a temperature of 37° C., and a humidity of 85%. A sugar-free DMEM medium was placed in the hypoxia workstation for pre-hypoxia for 3 hours. The medium in the culture plate was aspirated, and the plate was washed twice with preheated sugar-free DMEM medium, and 100 uL of sugar-free DMEM medium was added to each well. The culture plate was placed in the hypoxia workstation, and 300 uL of pre-hypoxic sugar-free DMEM medium was added to each well, and then the culture plate was placed in the hypoxia workstation for additional hypoxia for 4 hours. Restoration was then performed. The culture plate was taken out, and the sugar-free DMEM medium was replaced with 400 uL of normal medium containing 10% fetal bovine serum, and then the plate was placed in a 37° C. 5% CO2 cell incubator for culturing for 24 hours or a specified time period. For the cells in the normal group, it was only replaced with 400 uL of new normal medium containing 10% fetal bovine serum. […]
(§2) The cells were washed twice with pre-cooled PBS, then scraped off with a cell scraper and transferred to a 1.5 mL centrifuge tube, and centrifugation was performed at 4° C. and 1000 g for 5 minutes. […] Each protein sample was then quantified using the BCA protein quantification kit. After protein quantification, protein lysis buffer was used to adjust the protein concentration of each sample to be consistent with the protein sample with the lowest concentration, and then each protein sample was sufficiently mixed with 5× protein loading buffer at a ratio of 4:1. […]

NR4A3 [2] = assay: NR4A3 protein expression under OGD-R, RAOEC (Western blot, immunofluorescence); type: cell-based, rat; details: for degradation of NR4A3 during restoration injury: given together with CHX 100 μM, MG132 10, 30, 100 nM, CQ 10, 30, 100 μM
Description: as §1, §2

NR4A3 [3] = assay: NR4A3 ubiquitination after OGD-R in vascular endothelial cells (immunoprecipitation with anti-ubiquitin antibodies); type: cell-based; details: YC-6 10 μM; MG132 100 nM; given at restoration
Description: as §1
The cells were washed twice with pre-cooled PBS, then scraped off with a cell scraper and transferred to a 1.5 mL centrifuge tube, and centrifugation was performed at 4° C. and 1000 g for 5 minutes. […] Each protein sample was then quantified using the BCA protein quantification kit. After protein quantification, IP lysis buffer was used to adjust the protein concentration of each sample to 1 mg/mL. […]

[4] = system: human alveolar epithelial A549 cells; details: A549 cells in vitro; cited from earlier work
PFKFB3 = details: mouse model of LPS-induced pulmonary fibrosis; cited from earlier work
[5] = 100 μM given during restoration after OGD

Structure (SMILES): CC(C)C[C@@H](C=O)NC(=O)[C@H](CC(C)C)NC(=O)[C@H](CC(C)C)NC(=O)OCc1ccccc1 [MG132] (Cbz-Leu-Leu-Leu-aldehyde)
- degradation of NR4A3 during restoration injury (NR4A3 [1]): could inhibit the degradation of NR4A3
- degradation of NR4A3 during restoration injury (NR4A3 [2]): could inhibit the degradation of NR4A3
- ubiquitination modification of NR4A3 induced by restoration (NR4A3 [3]): increase of ubiquitinated NR4A3

Structure (SMILES): C[C@@H]1C[C@@H]([C@H](O)CC2CC(=O)NC(=O)C2)C(=O)[C@@H](C)C1 [CHX, Cycloheximide]
- NR4A3 protein level during restoration (NR4A3 [1]; [5]): almost complete depletion of NR4A3 protein
- NR4A3 protein level during restoration (NR4A3 [2]; [5]): almost complete depletion of NR4A3 protein

Structure (SMILES): O=C(/C=C/c1cccnc1)c1ccncc1 [3PO]
- LPS-induced apoptosis, inflammatory cytokine production, enhanced glycolytic flux and increased ROS [4]: reversed
- upregulation of PFKFB3 expression and enhanced aerobic glycolysis (PFKFB3): could reverse the significant upregulation of PFKFB3 expression and enhanced aerobic glycolysis

Structure (SMILES): CCN(CC)CCCC(C)Nc1ccnc2cc(Cl)ccc12 (stereo not drawn) [CQ, Chloroquine]
- degradation of NR4A3 during restoration injury (NR4A3 [1]): did not significantly inhibit the degradation of NR4A3
- degradation of NR4A3 during restoration injury (NR4A3 [2]): did not significantly inhibit the degradation of NR4A3
